pIC50: −log10 of the molar value. Starred links: 1 amine or outer side, 2 acyl side, 3 side chain; linkers in the order of their positions; H or OH if unused. Positions of bridges follow the written chain, without caps; N, C: chain ends. Non-standard residues stand in square brackets, D forms with d. Residues, ends and D or L forms follow the SMILES beside them. Groups on a side chain read outwards from the residue. *: point of attachment. Trp(1-CH2CO2Me) = COC(=O)Cn1cc(C[C@H](N)C(=O)O)c2ccccc21; Trp(1-CH2COOH) = N[C@@H](Cc1cn(CC(=O)O)c2ccccc12)C(=O)O; Benzoyl(4-F,3-CF3) = O=C(c1ccc(F)c(C(F)(F)F)c1)*; Pyrazinecarbonyl = O=C(c1cnccn1)*; Hyp = O=C(O)[C@@H]1C[C@@H](O)CN1; X25 = FC(F)(F)Oc1ccc(NC(=S)*)cc1; X53 = Cc1nc(-c2cccnc2)sc1C(=O)*; X69 = c1ccc(-c2ccc(N*)cc2)cc1; NMeNle = CCCC[C@H](NC)C(=O)O; X22 = c1ccc(N(c2ccccc2)*)cc1; X2 = c1ccc(-c2ccccc2N*)cc1; NMeA = CN[C@@H](C)C(=O)O; Dab = NCC[C@H](N)C(=O)O; X76 = Fc1cc(N*)cc(F)c1F; Dap = NC[C@H](N)C(=O)O; X26 = S=C(Nc1ccccc1)*; X89 = O=C(Oc1ccccc1)*; CO = O=C([*:1])[*:2]; Bz = O=C(c1ccccc1)*; NHPh = c1ccc(N*)cc1

The first experiment deals with T1, PD-1/PD-L1 (Homo sapiens, UniProt Q9NZQ7).
T1 construct: TVMV protease site linker (C); made in house; host or cells: HEK293T cells
T1 sequence (Q9NZQ7 18-239): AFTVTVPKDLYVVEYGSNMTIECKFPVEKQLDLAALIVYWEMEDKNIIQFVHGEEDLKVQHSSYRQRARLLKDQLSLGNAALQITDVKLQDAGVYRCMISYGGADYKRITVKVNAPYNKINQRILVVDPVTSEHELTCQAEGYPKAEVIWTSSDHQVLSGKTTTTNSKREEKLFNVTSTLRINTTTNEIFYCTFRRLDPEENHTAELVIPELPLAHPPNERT
In words: PD-1/PD-L1 Homogenous Time-Resolved Fluorescence (HTRF) binding assay.
Details: not given
From the text:
The ability of the compounds of formula (I) to bind to PD-L1 was investigated using a PD-1/PD-L1 Homogenous Time-Resolved Fluorescence (HTRF) binding assay.
The interaction of PD-1 and PD-L1 can be assessed using soluble, purified preparations of the extracellular domains of the two proteins. The PD-1 and PD-L1 protein extracellular domains were expressed as fusion proteins with detection tags, for PD-1, the tag was the Fc portion of Immunoglobulin (PD-1-Ig) and for PD-L1 it was the 6 histidine motif (PD-L1-His). All binding studies were performed in an HTRF assay buffer consisting of dPBS supplemented with 0.1% […] bovine serum albumin and 0.05% (v/v) Tween-20. For the h/PD-L1-His binding assay, inhibitors were pre-incubated with PD-L1-His (10 nM final) for 15 m in 4 μl of assay buffer, followed by addition of PD-1-Ig (20 nM final) in 1 μl of assay buffer and further incubation for 15 m. HTRF detection was achieved using europium crypate-labeled anti-Ig (1 nM final) and allophycocyanin (APC) labeled anti-His (20 nM final). Antibodies were diluted in HTRF detection buffer and 5 μl was dispensed on top of the binding reaction. […] Additional binding assays were established between the human proteins PD-1-Ig/PD-L2-His (20 & 5 nM, respectively) and CD80-His/PD-L1-Ig (100 & 10 nM, respectively). […]
For `CCCC[C@H]1C(=O)N(C)[C@@H](CCCC)C(=O)N[C@@H](CC(C)C)C(=O)N[C@H](C(=O)NCC(N)=O)CSCC(=O)N[C@@H](Cc2ccc(O)cc2)C(=O)N(C)[C@@H](C)C(=O)N[C@@H](CC(N)=O)C(=O)N2CCC[C@H]2C(=O)N[C@@H](CNC(=O)c2ccccc2)C(=O)N[C@@H](CC(C)C)C(=O)N2C[C@H](O)C[C@H]2C(=O)N[C@@H](Cc2c[nH]c3ccccc23)C(=O)N[C@@H](CCNC(=O)c2ccccc2)C(=O)N[C@@H](Cc2cn(CC(=O)OC)c3ccccc23)C(=O)N1C` [Example 1006] ({CH2CO}-Y[NMeA]NP[Dap](Bz)L[Hyp]W[Dab](Bz)[Trp(1-CH2CO2Me)][NMeNle][NMeNle]LCG-NH2; thioether N-14), the pIC50 (as a rule, the IC50 on a negative log10 scale, so that one unit is a factor of ten) is 9.70. The compound `CCCC[C@H]1C(=O)N(C)[C@@H](CCCC)C(=O)N[C@@H](CC(C)C)C(=O)N[C@H](C(=O)NCC(N)=O)CSCC(=O)N[C@@H](Cc2ccc(O)cc2)C(=O)N(C)[C@@H](C)C(=O)N[C@@H](CC(N)=O)C(=O)N2CCC[C@H]2C(=O)N[C@@H](CNC(=O)Nc2ccc(-c3ccccc3)cc2)C(=O)N[C@@H](CC(C)C)C(=O)N2C[C@H](O)C[C@H]2C(=O)N[C@@H](Cc2c[nH]c3ccccc23)C(=O)N[C@@H](CCNC(=O)Nc2ccc(-c3ccccc3)cc2)C(=O)N[C@@H](Cc2cn(CC(=O)O)c3ccccc23)C(=O)N1C` [Example 1011] ({CH2CO}-Y[NMeA]NP[Dap]([CO-X69])L[Hyp]W[Dab]([CO-X69])[Trp(1-CH2COOH)][NMeNle][NMeNle]LCG-NH2; thioether N-14) gave a pIC50 of 7.77. Compound `CCCC[C@H]1C(=O)N(C)[C@@H](CCCC)C(=O)N[C@@H](CC(C)C)C(=O)N[C@H](C(=O)NCC(N)=O)CSCC(=O)N[C@@H](Cc2ccc(O)cc2)C(=O)N(C)[C@@H](C)C(=O)N[C@@H](CC(N)=O)C(=O)N2CCC[C@H]2C(=O)N[C@@H](CNC(=O)Oc2ccccc2)C(=O)N[C@@H](CC(C)C)C(=O)N2C[C@H](O)C[C@H]2C(=O)N[C@@H](Cc2c[nH]c3ccccc23)C(=O)N[C@@H](CCNC(=O)Oc2ccccc2)C(=O)N[C@@H](Cc2cn(CC(=O)OC)c3ccccc23)C(=O)N1C` [Example 1013] ({CH2CO}-Y[NMeA]NP[Dap](X89)L[Hyp]W[Dab](X89)[Trp(1-CH2CO2Me)][NMeNle][NMeNle]LCG-NH2; thioether N-14) had a negative-log IC50 (pIC50) of 8.28.

The same experiment, now with this note: PD-L1-His 10 nM pre-incubated with inhibitor, PD-1-Ig 20 nM; read-out: HTRF IC50.
As for `CCCC[C@H]1C(=O)N(C)[C@@H](CCCC)C(=O)N[C@@H](CC(C)C)C(=O)N[C@H](C(=O)NCC(N)=O)CSCC(=O)N[C@@H](Cc2ccc(O)cc2)C(=O)N(C)[C@@H](C)C(=O)N[C@@H](CC(N)=O)C(=O)N2CCC[C@H]2C(=O)N[C@@H](CNC(=S)Nc2ccccc2)C(=O)N[C@@H](CC(C)C)C(=O)N2C[C@H](O)C[C@H]2C(=O)N[C@@H](Cc2c[nH]c3ccccc23)C(=O)N[C@@H](CCNC(=S)Nc2ccccc2)C(=O)N[C@@H](Cc2cn(CC(=O)O)c3ccccc23)C(=O)N1C` [Example 1001] ({CH2CO}-Y[NMeA]NP[Dap](X26)L[Hyp]W[Dab](X26)[Trp(1-CH2COOH)][NMeNle][NMeNle]LCG-NH2; thioether N-14), the pIC50 was 8.72. Take `CCCC[C@H]1C(=O)N(C)[C@@H](CCCC)C(=O)N[C@@H](CC(C)C)C(=O)N[C@H](C(=O)NCC(N)=O)CSCC(=O)N[C@@H](Cc2ccc(O)cc2)C(=O)N(C)[C@@H](C)C(=O)N[C@@H](CC(N)=O)C(=O)N2CCC[C@H]2C(=O)N[C@@H](CNC(=O)c2cnccn2)C(=O)N[C@@H](CC(C)C)C(=O)N2C[C@H](O)C[C@H]2C(=O)N[C@@H](Cc2c[nH]c3ccccc23)C(=O)N[C@@H](CCNC(=O)c2cnccn2)C(=O)N[C@@H](Cc2cn(CC(=O)OC)c3ccccc23)C(=O)N1C` [Example 1002] ({CH2CO}-Y[NMeA]NP[Dap](Pyrazinecarbonyl)L[Hyp]W[Dab](Pyrazinecarbonyl)[Trp(1-CH2CO2Me)][NMeNle][NMeNle]LCG-NH2; thioether N-14): the pIC50 was 8.46.

Take `CCCC[C@H]1C(=O)N(C)[C@@H](CCCC)C(=O)N[C@@H](CC(C)C)C(=O)N[C@H](C(=O)NCC(N)=O)CSCC(=O)N[C@@H](Cc2ccc(O)cc2)C(=O)N(C)[C@@H](C)C(=O)N[C@@H](CC(N)=O)C(=O)N2CCC[C@H]2C(=O)N[C@@H](CNC(=O)N(c2ccccc2)c2ccccc2)C(=O)N[C@@H](CC(C)C)C(=O)N2C[C@H](O)C[C@H]2C(=O)N[C@@H](Cc2c[nH]c3ccccc23)C(=O)N[C@@H](CCNC(=O)N(c2ccccc2)c2ccccc2)C(=O)N[C@@H](Cc2cn(CC(=O)OC)c3ccccc23)C(=O)N1C` [Example 1004] ({CH2CO}-Y[NMeA]NP[Dap]([CO-X22])L[Hyp]W[Dab]([CO-X22])[Trp(1-CH2CO2Me)][NMeNle][NMeNle]LCG-NH2; thioether N-14): the pIC50 was 7.64. Consider `CCCC[C@H]1C(=O)N(C)[C@@H](CCCC)C(=O)N[C@@H](CC(C)C)C(=O)N[C@H](C(=O)NCC(N)=O)CSCC(=O)N[C@@H](Cc2ccc(O)cc2)C(=O)N(C)[C@@H](C)C(=O)N[C@@H](CC(N)=O)C(=O)N2CCC[C@H]2C(=O)N[C@@H](CNC(=O)c2ccc(F)c(C(F)(F)F)c2)C(=O)N[C@@H](CC(C)C)C(=O)N2C[C@H](O)C[C@H]2C(=O)N[C@@H](Cc2c[nH]c3ccccc23)C(=O)N[C@@H](CCNC(=O)c2ccc(F)c(C(F)(F)F)c2)C(=O)N[C@@H](Cc2cn(CC(=O)OC)c3ccccc23)C(=O)N1C` [Example 1007] ({CH2CO}-Y[NMeA]NP[Dap](Benzoyl(4-F,3-CF3))L[Hyp]W[Dab](Benzoyl(4-F,3-CF3))[Trp(1-CH2CO2Me)][NMeNle][NMeNle]LCG-NH2; thioether N-14), for which the pIC50 is 7.49. Take `CCCC[C@H]1C(=O)N(C)[C@@H](CCCC)C(=O)N[C@@H](CC(C)C)C(=O)N[C@H](C(=O)NCC(N)=O)CSCC(=O)N[C@@H](Cc2ccc(O)cc2)C(=O)N(C)[C@@H](C)C(=O)N[C@@H](CC(N)=O)C(=O)N2CCC[C@H]2C(=O)N[C@@H](CNC(=O)c2sc(-c3cccnc3)nc2C)C(=O)N[C@@H](CC(C)C)C(=O)N2C[C@H](O)C[C@H]2C(=O)N[C@@H](Cc2c[nH]c3ccccc23)C(=O)N[C@@H](CCNC(=O)c2sc(-c3cccnc3)nc2C)C(=O)N[C@@H](Cc2cn(CC(=O)OC)c3ccccc23)C(=O)N1C` [Example 1008] ({CH2CO}-Y[NMeA]NP[Dap](X53)L[Hyp]W[Dab](X53)[Trp(1-CH2CO2Me)][NMeNle][NMeNle]LCG-NH2; thioether N-14): the pIC50 was 8.12. On to `CCCC[C@H]1C(=O)N(C)[C@@H](CCCC)C(=O)N[C@@H](CC(C)C)C(=O)N[C@H](C(=O)NCC(N)=O)CSCC(=O)N[C@@H](Cc2ccc(O)cc2)C(=O)N(C)[C@@H](C)C(=O)N[C@@H](CC(N)=O)C(=O)N2CCC[C@H]2C(=O)N[C@@H](CNC(=O)Nc2ccccc2)C(=O)N[C@@H](CC(C)C)C(=O)N2C[C@H](O)C[C@H]2C(=O)N[C@@H](Cc2c[nH]c3ccccc23)C(=O)N[C@@H](CCNC(=O)Nc2ccccc2)C(=O)N[C@@H](Cc2cn(CC(=O)O)c3ccccc23)C(=O)N1C` [Example 1009] ({CH2CO}-Y[NMeA]NP[Dap]([CO-NHPh])L[Hyp]W[Dab]([CO-NHPh])[Trp(1-CH2COOH)][NMeNle][NMeNle]LCG-NH2; thioether N-14), for which the pIC50 is 8.19. In the case of `CCCC[C@H]1C(=O)N(C)[C@@H](CCCC)C(=O)N[C@@H](CC(C)C)C(=O)N[C@H](C(=O)NCC(N)=O)CSCC(=O)N[C@@H](Cc2ccc(O)cc2)C(=O)N(C)[C@@H](C)C(=O)N[C@@H](CC(N)=O)C(=O)N2CCC[C@H]2C(=O)N[C@@H](CNC(=S)Nc2ccc(OC(F)(F)F)cc2)C(=O)N[C@@H](CC(C)C)C(=O)N2C[C@H](O)C[C@H]2C(=O)N[C@@H](Cc2c[nH]c3ccccc23)C(=O)N[C@@H](CCNC(=S)Nc2ccc(OC(F)(F)F)cc2)C(=O)N[C@@H](Cc2cn(CC(=O)O)c3ccccc23)C(=O)N1C` [Example 1010] ({CH2CO}-Y[NMeA]NP[Dap](X25)L[Hyp]W[Dab](X25)[Trp(1-CH2COOH)][NMeNle][NMeNle]LCG-NH2; thioether N-14), the negative logarithm of the IC50 (pIC50) is 8.15. For `CCCC[C@H]1C(=O)N(C)[C@@H](CCCC)C(=O)N[C@@H](CC(C)C)C(=O)N[C@H](C(=O)NCC(N)=O)CSCC(=O)N[C@@H](Cc2ccc(O)cc2)C(=O)N(C)[C@@H](C)C(=O)N[C@@H](CC(N)=O)C(=O)N2CCC[C@H]2C(=O)N[C@@H](CNC(=O)Nc2cc(F)c(F)c(F)c2)C(=O)N[C@@H](CC(C)C)C(=O)N2C[C@H](O)C[C@H]2C(=O)N[C@@H](Cc2c[nH]c3ccccc23)C(=O)N[C@@H](CCNC(=O)Nc2cc(F)c(F)c(F)c2)C(=O)N[C@@H](Cc2cn(CC(=O)O)c3ccccc23)C(=O)N1C` [Example 1012] ({CH2CO}-Y[NMeA]NP[Dap]([CO-X76])L[Hyp]W[Dab]([CO-X76])[Trp(1-CH2COOH)][NMeNle][NMeNle]LCG-NH2; thioether N-14), the pIC50 is 8.32.

The same experiment, now with this note: read-out: HTRF IC50; PD-L1-His 10 nM pre-incubated with inhibitor, PD-1-Ig 20 nM.
Regarding `CCCC[C@H]1C(=O)N(C)[C@@H](CCCC)C(=O)N[C@@H](CC(C)C)C(=O)N[C@H](C(=O)NCC(N)=O)CSCC(=O)N[C@@H](Cc2ccc(O)cc2)C(=O)N(C)[C@@H](C)C(=O)N[C@@H](CC(N)=O)C(=O)N2CCC[C@H]2C(=O)N[C@@H](CNC(=O)Nc2ccccc2-c2ccccc2)C(=O)N[C@@H](CC(C)C)C(=O)N2C[C@H](O)C[C@H]2C(=O)N[C@@H](Cc2c[nH]c3ccccc23)C(=O)N[C@@H](CCNC(=O)Nc2ccccc2-c2ccccc2)C(=O)N[C@@H](Cc2cn(CC(=O)O)c3ccccc23)C(=O)N1C` [Example 1014] ({CH2CO}-Y[NMeA]NP[Dap]([CO-X2])L[Hyp]W[Dab]([CO-X2])[Trp(1-CH2COOH)][NMeNle][NMeNle]LCG-NH2; thioether N-14), the negative logarithm of the IC50 (pIC50) is 9.15.

These data come from patent US20220389061A1, “IMMUNOMODULATORS” (priority 2019, published 2022).
